Measured values as given in patent publication US20170189444A1, “POLYMERIC COMPOSITIONS AND RELATED SYSTEMS AND METHODS FOR REGULATING BIOLOGICAL HYDROGELS” (CALIFORNIA INSTITUTE OF TECHNOLOGY, priority 2016, published 2017).

Assays:
[1] = system: colonic mucus hydrogel; test: Ex vivo polymer-induced compression of washed colonic mucus hydrogel (1 μm microparticle method); design: species or system mice; details: 500 mM acetate
From the text: Each mouse was euthanized; the colon was removed and immediately flushed gently with ice-cold 1× PBS, and placed ˜1 cm long segments of the mid-colon in ice-cold PBS. […] The hydrogel thickness was detected through imaging of the washed tissue. […] This ensured that the microparticles deposited onto the mucus hydrogel surface. both the epithelium and the deposited microparticles were simultaneously imaged using confocal or two-photon reflectance microscopy. After measuring the initial washed mucus thickness, ˜0.2-2mL of the test polymer solution was gently deposited onto the exposed luminal surface and then collected the same 3D stacks at the same xy fields of view To measure the “percent compression”, or the overall percentage change in the thickness, of the colonic mucus after exposure to the polymer solution, the thickness was measured before and after exposure to the solution at the same five xy positions, using the distance between the epithelial surface and the deposited microparticles in the 3D stacks. To calculate the percentage compression, the percentage change in the thickness measured was calculated, as well as the measurement uncertainty (using the optical slice thickness as the experimental uncertainty in the measured thickness), at each of these five xy positions. The percentage compression was calculated as the mean of these five measured values. […]

[2] = system: colonic mucus hydrogel; test: Ex vivo penetration or exclusion of probes and polymers in adherent colonic mucus hydrogel; design: species or system mice; details: washed explant, incubated 1-2 h at 4° C.

CC(=O)O [acetate]
mucus compression [1]: ≈ 10%

FITC-dextran [fluorescent dextran 2 MDa]
penetration into or exclusion from adherent mucus hydrogel [2]: penetrate the hydrogel

Methoxyl polyethylene glycol-FITC [mPEG-FITC 200k]
penetration into or exclusion from adherent mucus hydrogel [2]: Penetration of mucus | penetration into or exclusion from adherent mucus hydrogel ([2]; listed as Fluorescent PEG 200 kDa): penetrate the hydrogel
